This note sets out measurements from patent US20180000085A1, “USE OF PICOLINAMIDE COMPOUNDS WITH FUNGICIDAL ACTIVITY” (DOW AGROSCIENCES LLC, priority 2014, published 2018).

In one assay the test system is Puccinia triticina. The assay is described as follows: Wheat brown rust (PUCCRT) disease control on wheat seedlings. The class given is in vivo. The arrangement: key to PUCCRT 3DC, HV activity at 100 ppm (% control rating) / PUCCRT disease control, 3DC / PUCCRT 1DP disease control rating, HV activity / PUCCRT 3DC disease control rating, HV activity / PUCCRT 3DC, LV activity at 125.1 g/H (% Control rating) / PUCCRT 1DP, LV activity at 125.1 g/H (% Control rating) / PUCCRT 3DC disease control rating, LV activity at 125.1 g/H / PUCCRT 1DP disease control rating, LV activity at 125.1 g/H / PUCCRT 3DC disease control rating, HV activity at 100 ppm / PUCCRT 1DP disease control rating, HV activity at 100 ppm / HV activity at 100 ppm PUCCRT 3DC (disease control rating) / LV activity at 125.1 g/H PUCCRT 1DP (disease control rating) / LV activity at 125.1 g/H PUCCRT 3DC (disease control rating): A: > 80; B: ≤ 80; C: Not Tested; D: No Activity Observed in the Reported Assay. The following applies: for PUCCRT 1DP disease control rating, HV activity / PUCCRT 3DC disease control rating, HV activity: HV application at 100 ppm; for PUCCRT 1DP disease control rating, HV activity / PUCCRT 3DC disease control rating, HV activity / LV activity at 125.1 g/H PUCCRT 1DP (disease control rating) / LV activity at 125.1 g/H PUCCRT 3DC (disease control rating): wheat brown rust.

For another assay, the system named is Zymoseptoria tritici. The assay is described as follows: Leaf blotch of wheat (SEPTTR) disease control on wheat seedlings. It is filed as in vivo. The arrangement: key to SEPTTR 1DP, HV activity at 100 ppm (% control rating) / SEPTTR 3DC, HV activity at 100 ppm (% control rating) / SEPTTR disease control, 1DP / SEPTTR disease control, 3DC / SEPTTR 1DP disease control rating, HV activity / SEPTTR 3DC disease control rating, HV activity / SEPTTR 3DC, LV activity at 125.1 g/H (% Control rating) / SEPTTR 1DP, LV activity at 125.1 g/H (% Control rating) / SEPTTR 1DP disease control rating, LV activity at 125.1 g/H / SEPTTR 3DC disease control rating, LV activity at 125.1 g/H / SEPTTR 3DC disease control rating, HV activity at 100 ppm / SEPTTR 1DP disease control rating, HV activity at 100 ppm / HV activity at 100 ppm SEPTTR 3DC (disease control rating) / HV activity at 100 ppm SEPTTR 1DP (disease control rating) / LV activity at 125.1 g/H SEPTTR 1DP (disease control rating) / LV activity at 125.1 g/H SEPTTR 3DC (disease control rating): A: > 80; B: ≤ 80; C: Not Tested; D: No Activity Observed in the Reported Assay. The following applies: for SEPTTR 1DP disease control rating, HV activity / SEPTTR 3DC disease control rating, HV activity: HV application at 100 ppm; for SEPTTR 1DP disease control rating, HV activity / SEPTTR 3DC disease control rating, HV activity / LV activity at 125.1 g/H SEPTTR 1DP (disease control rating) / LV activity at 125.1 g/H SEPTTR 3DC (disease control rating): wheat leaf blotch.

Where [1] appears, read: high volume application, 100 ppm, 1 day protectant.
[2] abbreviates: high volume application, 100 ppm, 3 day curative.
Setting [3] is: low volume application, 125.1 g/H, 1 day protectant.
[4] abbreviates: low volume application, 125.1 g/H, 3 day curative.
Where [5] appears, read: low volume application, 125.1 g/H, 1 Day Protectant.
The mark [6] stands for this setting: low volume application, 125.1 g/H, 3 Day Curative.

With `CC(NC(=O)c1ncccc1O)C(=O)OC(C)C(Oc1ccccc1)C(C)C` (stereo not shown) [Cmpd 424], in the assay on Puccinia triticina (1 Day Protectant), the “PUCCRT 1DP disease control rating, HV activity” value is given as “A (> 80)”. Besides, the “PUCCRT 3DC disease control rating, HV activity” value in the assay with Puccinia triticina (3 Day Curative) is on record as “A (> 80)”. Further, the “SEPTTR 1DP disease control rating, HV activity” value in the assay on Zymoseptoria tritici (1 Day Protectant) is recorded as “A (> 80)”. For the same compound, the “SEPTTR 3DC disease control rating, HV activity” value in the assay on Zymoseptoria tritici (3 Day Curative) is given as “A (> 80)”.

With `COc1ccnc(C(=O)N[C@@H](C)C(=O)O[C@@H](C)[C@H](Oc2cccc(Cl)c2)C(C)(C)C)c1O` [Cmpd 1007], the “PUCCRT 1DP disease control rating, HV activity at 100 ppm” value with Puccinia triticina (setting [1]) was “A (> 80)”. The “PUCCRT 3DC disease control rating, HV activity at 100 ppm” value in the assay with Puccinia triticina (setting [2]) is listed as “A (> 80)”. For the same compound, the “SEPTTR 1DP disease control rating, HV activity at 100 ppm” value with Zymoseptoria tritici (setting [1]) is “A (> 80)”. Moreover, the “SEPTTR 3DC disease control rating, HV activity at 100 ppm” value in the assay with Zymoseptoria tritici (setting [2]) was “B (≤ 80)”.

With `C=C[C@H](C)[C@@H](Oc1ccccc1)[C@H](C)OC(=O)[C@H](C)NC(=O)c1nccc(OC)c1O` [Cmpd 415], the “PUCCRT 1DP disease control rating, HV activity” value with Puccinia triticina (1 Day Protectant) is “A (> 80)”. For the same compound, the “PUCCRT 3DC disease control rating, HV activity” value in the assay with Puccinia triticina (3 Day Curative) is “A (> 80)”. For the same compound, the “SEPTTR 1DP disease control rating, HV activity” value in the assay on Zymoseptoria tritici (1 Day Protectant) is given as “A (> 80)”. For the same compound, the “SEPTTR 3DC disease control rating, HV activity” value with Zymoseptoria tritici (3 Day Curative) was “A (> 80)”.

`CCCO[C@@H](c1ccccc1)[C@H](C)OC(=O)[C@H](C)NC(=O)c1nccc(OC)c1OC(C)=O` [Cmpd 883]: the “PUCCRT 1DP disease control rating, LV activity at 125.1 g/H” value with Puccinia triticina (setting [3]) is “A (> 80)”. Also, the “PUCCRT 3DC disease control rating, LV activity at 125.1 g/H” value in the assay on Puccinia triticina (setting [4]) is listed as “A (> 80)”. In the assay with Zymoseptoria tritici (setting [3]), the “SEPTTR 1DP disease control rating, LV activity at 125.1 g/H” value is reported as “B (≤ 80)”. The “SEPTTR 3DC disease control rating, LV activity at 125.1 g/H” value in the assay with Zymoseptoria tritici (setting [4]) was “A (> 80)”.

Regarding `C=CC[C@@H](Oc1ccc(F)cc1F)[C@H](C)OC(=O)[C@H](C)NC(=O)c1nccc(OC)c1OCOC(C)=O` [Cmpd 1075], the “LV activity at 125.1 g/H PUCCRT 1DP (disease control rating)” value (“LV activity at 125.1 g/H PUCCRT 1DP” for short) in the assay with Puccinia triticina (setting [5]) was “A (> 80)”. Besides, the “LV activity at 125.1 g/H PUCCRT 3DC (disease control rating)” value (from here on “LV activity at 125.1 g/H PUCCRT 3DC”) in the assay on Puccinia triticina (setting [6]) was “B (≤ 80)”. The “LV activity at 125.1 g/H SEPTTR 1DP (disease control rating)” value (from here on “LV activity at 125.1 g/H SEPTTR 1DP”) in the assay on Zymoseptoria tritici (setting [5]) is on record as “D”. For the same compound, the “LV activity at 125.1 g/H SEPTTR 3DC (disease control rating)” value (from here on “LV activity at 125.1 g/H SEPTTR 3DC”) in the assay with Zymoseptoria tritici (setting [6]) is listed as “B (≤ 80)”.

Turning to `COc1ccnc(C(=O)N[C@H](C)C(=O)O[C@H](C)[C@@H](Oc2ccccc2)c2ccccc2)c1O` [Cmpd 352], in the assay on Puccinia triticina (1 Day Protectant), the “PUCCRT 1DP disease control rating, HV activity” value is on record as “D”. In the assay on Puccinia triticina (3 Day Curative), the “PUCCRT 3DC disease control rating, HV activity” value is recorded as “D”. Further, in the assay on Zymoseptoria tritici (1 Day Protectant), the “SEPTTR 1DP disease control rating, HV activity” value is reported as “D”. For the same compound, the “SEPTTR 3DC disease control rating, HV activity” value with Zymoseptoria tritici (3 Day Curative) is on record as “B (≤ 80)”.

Regarding `CC[C@H](CCC(C)C)[C@@H](OCC1CC1)[C@H](C)OC(=O)[C@H](C)NC(=O)c1nccc(OC)c1OC(C)=O` [Cmpd 507], in the assay on Puccinia triticina (setting [5]), the “PUCCRT 1DP, LV activity at 125.1 g/H (% Control rating)” value is recorded as “B (≤ 80)”. For the same compound, the “PUCCRT 3DC, LV activity at 125.1 g/H (% Control rating)” value with Puccinia triticina (setting [6]) is recorded as “B (≤ 80)”. Moreover, the “SEPTTR 1DP, LV activity at 125.1 g/H (% Control rating)” value in the assay with Zymoseptoria tritici (setting [5]) is “B (≤ 80)”. Also, the “SEPTTR 3DC, LV activity at 125.1 g/H (% Control rating)” value in the assay with Zymoseptoria tritici (setting [6]) is listed as “B (≤ 80)”.

For `COc1cc(O[C@H](CC(C)C)[C@H](C)OC(=O)[C@H](C)NC(=O)c2nccc(OC)c2OC(C)=O)ccc1Cl` [Cmpd 1116], in the assay with Puccinia triticina (setting [5]), the “LV activity at 125.1 g/H PUCCRT 1DP” value is given as “A (> 80)”. In addition, the “LV activity at 125.1 g/H PUCCRT 3DC” value in the assay with Puccinia triticina (setting [6]) was “A (> 80)”. Moreover, in the assay on Zymoseptoria tritici (setting [5]), the “LV activity at 125.1 g/H SEPTTR 1DP” value is on record as “A (> 80)”. Also, the “LV activity at 125.1 g/H SEPTTR 3DC” value in the assay with Zymoseptoria tritici (setting [6]) was “A (> 80)”.

On to `C=CC[C@@H](OCC(=C)C)[C@H](C)OC(=O)[C@H](C)NC(=O)c1nccc(OC)c1OCOC(C)=O` [Cmpd 1082], for which the “LV activity at 125.1 g/H PUCCRT 1DP” value in the assay on Puccinia triticina (setting [5]) is given as “B (≤ 80)”. Further, the “LV activity at 125.1 g/H PUCCRT 3DC” value with Puccinia triticina (setting [6]) was “A (> 80)”. In addition, the “LV activity at 125.1 g/H SEPTTR 1DP” value in the assay with Zymoseptoria tritici (setting [5]) is reported as “D”. Further, in the assay on Zymoseptoria tritici (setting [6]), the “LV activity at 125.1 g/H SEPTTR 3DC” value is “D”.

In the case of `CCC(CC)C(Oc1cc(F)cc(Cl)c1)C(C)OC(=O)C(CC(C)C)NC(=O)c1nccc(OC)c1OCOC(C)=O` (stereo not shown) [Cmpd 683], in the assay on Puccinia triticina (setting [3]), the “PUCCRT 1DP disease control rating, LV activity at 125.1 g/H” value is recorded as “D”. Further, the “PUCCRT 3DC disease control rating, LV activity at 125.1 g/H” value with Puccinia triticina (setting [4]) was “D”. In the assay with Zymoseptoria tritici (setting [3]), the “SEPTTR 1DP disease control rating, LV activity at 125.1 g/H” value was “D”. Besides, in the assay on Zymoseptoria tritici (setting [4]), the “SEPTTR 3DC disease control rating, LV activity at 125.1 g/H” value was “B (≤ 80)”.
